From ChEMBL document CHEMBL2424615, “Design, synthesis, and characterization of novel tetrahydropyran-based bacterial topoisomerase inhibitors with potent anti-gram-positive activity” (J Med Chem, 2013)

Assays:
Escherichia coli = test: Antibacterial activity against wild type Escherichia coli ATCC 25922 assessed as growth inhibition by broth microdilution method; assay type: functional
Pseudomonas aeruginosa = test: Antibacterial activity against wild type Pseudomonas aeruginosa ATCC 27853 assessed as growth inhibition by broth microdilution method; assay type: functional
Staphylococcus aureus [1] = test: Antibacterial activity against NXL-101-resistant Staphylococcus aureus A-234 harboring DNA gyrase subunit A D83N mutant assessed as growth inhibition by broth microdilution method; assay type: functional
Streptococcus pneumoniae = test: Antibacterial activity against wild type Streptococcus pneumoniae ATCC 49619 assessed as growth inhibition by broth microdilution method; assay type: functional
Staphylococcus aureus [2] = test: Antibacterial activity against wild type Staphylococcus aureus ATCC 29213 assessed as growth inhibition by broth microdilution method; assay type: functional
Topoisomerase IV = Topoisomerase IV (Staphylococcus aureus, UniProt P0C1S7+P0C1U9); test: Inhibition of wild type Staphylococcus aureus ATCC 29213 topoisomerase-4 subunit 2GrlA/2GrlB assessed as pBR322 relaxation after 1 hr; assay type: protein-complex assay
[3] = Inhibition of wild type Escherichia coli ATCC 25922 DNA topoisomerase-4 subunit 2ParC/2ParE assessed as pBR322 relaxation after 1 hr
[4] = Inhibition of wild type Escherichia coli ATCC 25922 DNA gyrase subunit 2GyrA/2GyrB assessed as pBR322 supercoiling after 1 hr
DNA gyrase = DNA gyrase (Staphylococcus aureus, UniProt P0A0K8+P20831); test: Inhibition of wild type Staphylococcus aureus DNA gyrase subunit 2GyrA/2GyrB assessed as pBR322 supercoiling after 1 hr; assay type: protein-complex assay
hERG (KCNH2) = hERG (KCNH2) (Homo sapiens, UniProt Q12809); test: Inhibition of human ERG expressed in CHO cells at 10 uM after 3 mins by patch clamp assay relative to control; assay type: cell-based; settings: CHO cells that express human ERG

Row | SMILES | MIC (Escherichia coli) [µg/mL] | MIC (Pseudomonas aeruginosa) [µg/mL] | MIC (Staphylococcus aureus [1]) [µg/mL] | MIC (Streptococcus pneumoniae) [µg/mL] | MIC (Staphylococcus aureus [2]) [µg/mL] | IC50 (Topoisomerase IV) [nM] | IC50 [3] [nM] | IC50 [4] [nM] | IC50 (DNA gyrase) [nM] | inhibition at 0.05 h, 10 µM (hERG (KCNH2)) [%]
1 | COc1ccc2nccc([C@H](O)[C@@H](O)[C@@H]3CC[C@@H](NCc4ccc5c(n4)NC(=O)CS5)CO3)c2n1 | > 8 | > 8 | > 8 | 1 | 1 | > 8000 | 125 | 8000 | 500 | 93
2 | COc1ccc2nccc([C@H](O)[C@@H](O)[C@H]3CC[C@H](NCc4ccc5c(n4)NC(=O)CS5)CO3)c2n1 | 1 | > 8 | 0.5 | 0.03 | 0.03 | 8000 | 125 | 500 | 30 | 70
3 | COc1ccc2nccc([C@@H](O)[C@H](O)[C@@H]3CC[C@@H](NCc4ccc5c(n4)NC(=O)CS5)CO3)c2n1 | 1 | > 8 | 0.5 | 0.06 | 0.03 | 500 | 125 | 500 | < 30 | 36
4 | COc1ccc2nccc(/C=C/[C@@H]3CC[C@@H](NCc4cc5c(cn4)OCCO5)CO3)c2n1 | > 8 | > 8 | > 8 | 1 | 0.25 | > 8000 | – | > 8000 | 125 | 88
5 | COc1ccc2nccc(NC(=O)[C@@H]3CC[C@@H](NCc4cc5c(cn4)OCCO5)CO3)c2n1 | > 8 | > 8 | > 8 | 0.25 | 0.125 | > 8000 | – | > 8000 | 125 | 71
6 | COc1ccc2nccc(C(O)C[C@@H]3CC[C@@H](NCc4ccc5c(n4)NC(=O)CS5)CO3)c2n1 (mixture of isomers) | 1 | > 8 | 0.5 | 0.03 | 0.03 | > 8000 | < 30 | 500 | < 30 | 99
7 | COc1ccc2ncc(F)c([C@@H](O)[C@H](O)[C@@H]3CC[C@@H](NCc4ccc5c(n4)NC(=O)CS5)CO3)c2c1 | 4 | > 8 | > 8 | 0.25 | 0.25 | 8000 | 125 | 2000 | 125 | 15
8 | COc1ccc2nccc([C@@H](O)[C@H](O)[C@@H]3CC[C@@H](NCc4ccc5c(n4)NC(=O)CS5)CO3)c2c1 | 4 | > 8 | > 8 | 0.25 | 0.25 | 8000 | 125 | 2000 | 250 | 24
9 | COc1ccc2nccc(OC[C@@H]3CC[C@@H](NCc4cc5c(cn4)OCCO5)CO3)c2n1 | > 8 | > 8 | > 8 | 4 | 2 | > 8000 | – | > 8000 | 500 | 19
10 | COc1ccc2nccc(C(O)C[C@@H]3CC[C@@H](NCc4cc5c(cn4)OCCO5)CO3)c2n1 (mixture of isomers) | > 8 | > 8 | > 8 | 0.125 | 0.03 | > 8000 | – | > 8000 | 125 | 66
